Laboratory results taken from patent US20220324835A1 (Nurix Therapeutics, Inc., priority 2018, published 2022).

How the values were obtained:
Cbl-b (residues 36-427) = Cbl-b (residues 36-427) (Homo sapiens, UniProt Q13191); assay: Cbl-b binding assay (SPR, Biacore T200); settings: 20° C., 1:1 binding model
Method in brief: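 Affinities derived from global 1:1 steady-state or kinetic fits of double-referenced, solvent-corrected SPR data, 20 °C, NeutrAvidin-capture chip. Compound series (top 100 or 50 μM, 8–10 points) injected 50 s, 90–180 s dissociation. Asterisked values used 50 mM instead of 100 mM NaCl and 30 nM Src kinase.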

T-cell = assay: IL-2 secretion from T-cells co-stimulated with anti-CD3 and anti-CD28 antibody (Biological Example 2); assay type: cell-based, human; settings: Homo sapiens, T-cell, fold change over baseline, primary human total T-cells, read-out: IL-2 secretion Anti-CD3/Anti-CD28 stimulation; for fold induction at 0.3 µM: 0.3 μM Cbl-b inhibitor; for fold induction at 1 µM: 1 μM Cbl-b inhibitor; for fold induction at 4 µM: 4 μM Cbl-b inhibitor
Method in brief: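 No assay protocol given; T-cells stimulated with anti-CD3 alone or anti-CD3 plus anti-CD28, with or without Cbl-b inhibitor. Activation read as IL-2 secretion or CD25 surface staining, expressed as fold over baseline from uninhibited cells […].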

Sequence of Cbl-b (residues 36-427) (Q13191 36-427): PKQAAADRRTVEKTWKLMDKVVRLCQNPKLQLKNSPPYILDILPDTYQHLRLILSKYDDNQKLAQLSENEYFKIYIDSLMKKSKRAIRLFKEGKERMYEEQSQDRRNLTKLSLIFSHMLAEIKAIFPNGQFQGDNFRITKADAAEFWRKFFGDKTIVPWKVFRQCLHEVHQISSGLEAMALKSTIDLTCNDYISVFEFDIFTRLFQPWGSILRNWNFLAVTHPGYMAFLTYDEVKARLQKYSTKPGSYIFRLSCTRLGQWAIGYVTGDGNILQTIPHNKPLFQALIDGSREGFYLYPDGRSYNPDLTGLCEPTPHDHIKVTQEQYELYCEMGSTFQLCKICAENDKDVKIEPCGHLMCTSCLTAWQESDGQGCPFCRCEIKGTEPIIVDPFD

Compound	Kd (Cbl-b (residues 36-427))	fold induction at 0.3 µM (T-cell)	fold induction at 1 µM (T-cell)	fold induction at 4 µM (T-cell)
C[C@H](Sc1nncn1C)c1cccc(NC(=O)c2ccnc(C(F)(F)F)n2)c1 [Compound 75, N-[3-[(1S)-1-[(4-methyl-1,2,4-triazol-3-yl)sulfanyl]ethyl]phenyl]-2-(trifluoromethyl)pyrimidine-4-carboxamide]	0.301 to 1 µM	1.01 to 2.5	1.01 to 2.5	1.01 to 2.5
C[C@H](Sc1nncn1C)c1cccc(NC(=O)c2cncc(C(F)(F)F)n2)c1 [Compound 77, N-[3-[(1S)-1-[(4-methyl-1,2,4-triazol-3-yl)sulfanyl]ethyl]phenyl]-6-(trifluoromethyl)pyrazine-2-carboxamide]	1 to 3 µM	< 1	1.01 to 2.5	1.01 to 2.5
C[C@H](Sc1nncn1C)c1cccc(NC(=O)c2cc3c(Cl)cccc3[nH]2)c1 [Compound 78, 4-chloro-A-[3-[(LS)-1-[(4-methyl-1,2,4-triazol-3-yl)sulfanyl]ethyl]phenyl]-1H-indole-2-carboxamide]	0.1 to 0.3 µM	1.01 to 2.5	1.01 to 2.5	2.51 to 5
C[C@H](Sc1nncn1C)c1cccc(NC(=O)c2cccc(S(C)(=O)=O)n2)c1 [Compound 80, (S)-N-(3-(1-((4-methyl-4H-1,2,4-triazol-3-yl)thio)ethyl)phenyl)-6-(methylsulfonyl)picolinamide]	3 to 10 µM	< 1	1.01 to 2.5	1.01 to 2.5
C[C@H](Sc1nncn1C)c1cccc(NC(=O)c2cccc(C(C)(F)F)n2)c1 [Compound 81, (S)-6-(1,1-difluoroethyl)-N-(3-(1-((4-methyl-4H-1,2,4-triazol-3-yl)thio)ethyl)phenyl)picolinamide]	0.301 to 1 µM	< 1	< 1	2.51 to 5
C[C@H](Sc1nncn1C)c1cccc(NC(=O)c2cc(C(C)(C)O)cc(C(F)(F)F)n2)c1 [Compound 85, 4-(1-hydroxy-1-methyl-ethyl)-N-[3-[(1S)-1-[(4-methyl-1,2,4-triazol-3-yl)sulfanyl]ethyl]phenyl]-6-(trifluoromethyl)pyridine-2-carboxamide]	0.301 to 1 µM	< 1	< 1	1.01 to 2.5
C[C@H](Sc1nncn1C)c1ccc(F)c(NC(=O)c2cccc(C(F)(F)F)n2)c1 [Compound 95a, (S)-N-(2-fluoro-5-(1-((4-methyl-4H-1,2,4-triazol-3-yl)thio)ethyl)phenyl)-6-(trifluoromethyl)picolinamide]	1 to 3 µM	1.01 to 2.5	1.01 to 2.5	2.51 to 5
C[C@H](Sc1nnc[nH]1)c1cccc(NC(=O)c2cc3ccccc3cn2)c1 [Compound 98, (S)-N-(3-(1-((4H-1,2,4-triazol-3-yl)thio)ethyl)phenyl)isoquinoline-3-carboxamide]	3 to 10 µM	1.01 to 2.5	1.01 to 2.5	1.01 to 2.5
Cc1cc(C(=O)Nc2cc([C@H](C)Sc3nncn3C)ccn2)nc(C(F)(F)F)c1 [Compound 103, (S)-4-methyl-N-(4-(1-((4-methyl-4H-1,2,4-triazol-3-yl)thio)ethyl)pyridin-2-yl)-6-(trifluoromethyl)picolinamide]	1 to 3 µM	1.01 to 2.5	1.01 to 2.5	1.01 to 2.5
C[C@H](Sc1nncn1C)c1ccnc(NC(=O)c2cc(C3CC3)cc(C(F)(F)F)n2)c1 [Compound 104, (S)-4-cyclopropyl-N-(4-(1-((4-methyl-4H-1,2,4-triazol-3-yl)thio)ethyl)pyridin-2-yl)-6-(trifluoromethyl)picolinamide]	1 to 3 µM	1.01 to 2.5	1.01 to 2.5	1.01 to 2.5
C[C@H](Sc1nncn1C)c1ccnc(NC(=O)c2cc(Cl)cc(C(F)(F)F)n2)c1 [Compound 105, (S)-4-chloro-N-(4-(1-((4-methyl-4H-1,2,4-triazol-3-yl)thio)ethyl)pyridin-2-yl)-6-(trifluoromethyl)picolinamide]	1 to 3 µM	1.01 to 2.5	1.01 to 2.5	< 1
Cc1ccc(C(=O)Nc2cc([C@H](C)Sc3nncn3C)ccn2)nc1C1CC1 [Compound 113, (S)-6-cyclopropyl-5-methyl-N-(4-(1-((4-methyl-4H-1,2,4-triazol-3-yl)thio)ethyl)pyridin-2-yl)picolinamide]	1 to 3 µM	2.51 to 5	2.51 to 5	5 to 7.5
C[C@H](Sc1nncn1C)c1ccnc(NC(=O)c2cc3c(C(F)(F)F)cccc3[nH]2)c1 [Compound 120, N-[4-[(1S)-1-[(4-methyl-1,2,4-triazol-3-yl)sulfanyl]ethyl]-2-pyridyl]-4-(trifluoromethyl)-1H-indole-2-carboxamide]	0.301 to 1 µM	1.01 to 2.5	1.01 to 2.5	1.01 to 2.5
Cc1nc2cc([C@H](C)Sc3nncn3C)cc(NC(=O)c3cccc(C(F)(F)F)n3)c2o1 [Compound 130a, (S)-N-(2-methyl-5-(1-((4-methyl-4H-1,2,4-triazol-3-yl)thio)ethyl)benzo[d]oxazol-7-yl)-6-(trifluoromethyl)picolinamide]	0.301 to 1 µM	2.51 to 5	5 to 7.5	> 7.5
C[C@H](Sc1nncn1C)c1cccc(NC(=O)c2cc(C(=O)N3CC[C@H](O)C3)ccn2)c1 [Compound 140, 4-[[(3S)-3-hydroxypyrrolidin-1-yl]carbonyl]-N-[3-[(1S)-1-[(4-methyl-4H-1,2,4-triazol-3-yl)sulfanyl]ethyl]phenyl]pyridine-2-carboxamide]	0.301 to 1 µM	< 1	< 1	< 1
C[C@H](Sc1nncn1C)c1cccc(NC(=O)c2cc(C(=O)N3CC(O)C3)ccn2)c1 [Compound 148, (S)-4-(3-hydroxyazetidine-1-carbonyl)-N-(3-(1-((4-methyl-4H-1,2,4-triazol-3-yl)thio)ethyl)phenyl)picolinamide]	1 to 3 µM	< 1	< 1	< 1
C[C@H](Sc1nncn1C)c1cccc(NC(=O)c2cc(C(=O)N3C[C@H](O)C[C@@H]3C)ccn2)c1 [Compound 151, 4-((2S,4R)-4-hydroxy-2-methylpyrrolidine-1-carbonyl)-N-(3-((S)-1-((4-methyl-4H-1,2,4-triazol-3-yl)thio)ethyl)phenyl)picolinamide]	1 to 3 µM	> 7.5	> 7.5	> 7.5
C[C@H](Sc1nncn1C)c1cccc(N2Cc3c(cccc3C(F)(F)F)C2=O)c1 [Compound 166a, (S)-2-(3-(1-((4-methyl-4H-1,2,4-triazol-3-yl)thio)ethyl)phenyl)-4-(trifluoromethyl)isoindolin-1-one]	0.301 to 1 µM	< 1	< 1	1.01 to 2.5
C[C@H](Sc1nncn1C)c1cccc(N2Cc3c(ccnc3Cl)C2=O)c1 [Compound 167, 4-chloro-2-[3-[(1S)-1-[(4-methyl-1,2,4-triazol-3-yl)sulfanyl]ethyl]phenyl]-3H-pyrrolo[3,4-c]pyridin-1-one]	0.301 to 1 µM	1.01 to 2.5	< 1	2.51 to 5
CC(Sc1nncn1C)c1cc(F)cc(N2Cc3c(cccc3C(F)(F)F)C2=O)c1 [Compound 168, 2-[3-fluoro-5-[(1R)-1-[(4-methyl-1,2,4-triazol-3-yl)sulfanyl]ethyl]phenyl]-4-(trifluoromethyl)isoindolin-1-one]	1 to 3 µM	1.01 to 2.5	1.01 to 2.5	1.01 to 2.5
C[C@H](Sc1nncn1C)c1cc(F)cc(N2Cc3c(cccc3C(F)(F)F)C2=O)c1 [Compound 168a, 2-[3-fluoro-5-[(1S)-1-[(4-methyl-1,2,4-triazol-3-yl)sulfanyl]ethyl]phenyl]-4-(trifluoromethyl)isoindolin-1-one]	0.301 to 1 µM	< 1	1.01 to 2.5	< 1
C[C@H](Sc1nncn1C)c1ccnc(N2Cc3c(cccc3C(F)(F)F)C2=O)c1 [Compound 172a, (S)-(4-(1-((4-methyl-4H-1,2,4-triazol-3-yl)thio)ethyl)pyridin-2-yl)-4-(trifluoromethyl)isoindolin-1-one]	1 to 3 µM	2.51 to 5	2.51 to 5	2.51 to 5
C[C@H](Cc1nncn1C)c1cccc(NC(=O)c2cccc(S(C)(=O)=O)n2)c1 [Compound 185, (R)-N-(3-(1-(4-methyl-4H-1,2,4-triazol-3-yl)propan-2-yl)phenyl)-6-(methylsulfonyl)picolinamide]	1 to 3 µM	1.01 to 2.5	1.01 to 2.5	2.51 to 5
C[C@H](Cc1nncn1C)c1cccc(NC(=O)c2cc(C(C)(C)O)c(Cl)cn2)c1 [Compound 186, (R)-5-chloro-4-(2-hydroxypropan-2-yl)-N-(3-(1-(4-methyl-4H-1,2,4-triazol-3-yl)propan-2-yl)phenyl)picolinamide]	0.301 to 1 µM	2.51 to 5	1.01 to 2.5	5 to 7.5
